What was measured:
rat OX1R = molecular target: T1, rat OX1R (Rattus norvegicus, UniProt P56718); test: Calcium mobilization functional assay, HEK-293 cells, OX-A EC80
T1 sequence (P56718 1-416): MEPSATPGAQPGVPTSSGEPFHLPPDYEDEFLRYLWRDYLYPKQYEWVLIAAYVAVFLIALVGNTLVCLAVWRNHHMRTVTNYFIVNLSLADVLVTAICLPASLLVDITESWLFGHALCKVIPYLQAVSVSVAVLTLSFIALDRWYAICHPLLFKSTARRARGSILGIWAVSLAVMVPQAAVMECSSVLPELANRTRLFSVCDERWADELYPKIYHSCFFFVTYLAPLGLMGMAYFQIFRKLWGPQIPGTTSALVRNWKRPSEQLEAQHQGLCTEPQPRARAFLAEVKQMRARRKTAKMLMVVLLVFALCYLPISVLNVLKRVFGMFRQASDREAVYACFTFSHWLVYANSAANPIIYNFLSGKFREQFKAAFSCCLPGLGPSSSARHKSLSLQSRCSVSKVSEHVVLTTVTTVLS
Description: Stably transfected CHO-K1 cells for the human OX1R or HEK-293 cells for the rat OX1R were used for the in vitro functional assays. […] Since the intracellular calcium response is transient and not consistent with equilibrium assumptions, the assays were performed by giving a standard, EC80 dose of the OX agonist and calculating a pKB from inhibition of the agonist response by a dose range of the antagonists. The cells were plated in black 96 well tissue culture plates with clear bottoms at 50,000 cells/well and grown overnight at 37°C in 5% carbon dioxide (CO2). […] The cell plate was then transferred to the Molecular Devices Fluorometric Imaging Plate Reader (FLIPR) Tetra instrument, which adds the OX agonist and monitors changes in fluorescence which reflect intracellular calcium levels.
Results were calculated using GraphPad Prism (San Diego, CA, United States) software. Raw data from the FLIPR Tetra was exported as the difference between maximum and minimum fluorescence observed for each well. A non-linear regression was used to determine the agonist EC50 and antagonist IC50 for each plate, then the antagonist KB was calculated according to Cheng and Prusoff ([Cheng and Prusoff, 1973]).

Sprague-Dawley rats [1] = test: Sodium lactate panic provocation model (1-allyglycine treated rats)
Description: Experiments were performed in male Sprague-Dawley rats (300–350 g, Harlan Laboratory, Indianapolis, IN, United States). Prior to and during surgeries, rats were anesthetized with a nose cone connected to an isoflurane system (MGX Research Machine; Vetamic, Rossville, IN, United States). Radiotelemetry probes [Cat. no. HD-S11, Data Sciences International, St. Paul, MN, United States] were surgically implanted into the peritoneal cavity and sutured to the muscle wall in order to assess general motor activity. A pressure transducer was implanted into the femoral artery to assess cardiovascular responses [i.e., mean arterial blood pressure (MAP) and heart rate (HR)]. Rats were also fitted with femoral venous catheters for 0.5 M i.v. sodium lactate (NaLac) infusions, as previously described ([Shekhar et al., 1996]). After 3–5 days of recovery, rats were anesthetized and 26 gauge T-shaped cannulae (Cat. no. 3260PG, Plastics One, Inc., Roanoake, VA, United States) were directed at cardio-excitatory Perifornical hypothalamic area regions [([Shekhar and Keim, 1997]) bregma: 1.2 mm posterior, +2.1 mm lateral, +9.1 mm ventral and adjusted for approaching at a 10° angle toward the midline with the stereotaxic incisor bar elevated 5 mm above the interaural line] and cemented into place. The 22 gauge side arm was then attached, via PE-60 tubing, to an osmotic minipump (prefilled with 1-allyglycine solution chronically infused at 3.5 nmol/0.5 μl per hour) and sutured into place subcutaneously at the nape of the neck (DURECT Corporation, Model no. 2002).
Five days following 1-allyglycine infusion onset, in a counterbalanced design and with 48 h between crossover, rats were orally dosed with either JNJ-54717793 at 3, 10, or 30 mg/kg, or vehicle as a control group 60 min prior to the 15 min 0.5 M sodium lactate challenge. […] The data reported are changes in mean arterial blood pressure, HR, and activity from the average of the baseline (t-5 to t-1) from each rat.
Baseline SI testing was done 7–8 days following radiotelemetry surgery recovery, and repeated again 2–3 days later during drug treatment crossover. On experimental drug testing days, the SI test was performed 5 min after the offset of the sodium lactate challenge with different partners each time. The SI box dimension were 0.9 m long × 0.9 m wide × 0.3 m height. […] All behavioral tests were digitally videorecorded with a camera above the box. The “experimental” rat and an unfamiliar “partner” rat were both allowed to individually habituate to the box for a 5 min period 24 h prior to each SI test. During the SI test, the two rats were placed together in the center of the box, and the total duration (sec) of non-aggressive physical contact (grooming, sniffing, crawling over and under, etc.) initiated by the “experimental” rat is quantified over a 5 min duration. A baseline SI test was performed at least 72 h after i.v. catheterization, but prior to osmotic minipump implantation. Another SI test was performed 5 days following minipump infusions and immediately following saline or sodium lactate infusions. Video recorded sessions were scored at a later time by Stephanie D Fitz, whom was blind to any drug treatment.
(§1) Each dependent variable for assessment of behavior and radiotelemetry data was respectively analyzed using a one way ANOVA, or a one way ANOVA with repeated measures with drug treatment as the main factor and time as repeated measures. In the presence of significant main effects post hoc tests were conducted using a parametric Fisher’s LSD test. Within subjects time effects were also assessed using a Dunnett’s one way analysis with the minute prior to the i.v infusion used as the control.

Sprague-Dawley rats [2] = test: Normoxic 20% CO2 panic provocation model
Description: Experiments were performed in male Sprague-Dawley rats (300–350 g, Harlan Laboratory, Indianapolis, IN, United States). […] Following exposure to hypercarbic and atmospheric air gasses, rats were immediately placed in the open-field box for a 5 min period then assessed in SI test for 5 min. The data reported are changes in activity, expressed in 1 min bins, relative to the average of the baseline measurement (t-5 to t-1 minute) from each rat.
as §1, with “control. Statistical significance was accepted with p < 0.05. All statistical analyses were carried out using SPSS 13.0 (SPSS, Inc., Chicago, IL, United States) and all graphs were generated using SigmaPlot 2001 (SPSS, Inc., Chicago, IL, United States) or Graphpad Prizm 7 Software, Inc. for Windows.” for “control.”
Activation of the OX1R is a critical component of CO2-mediated anxiety and hypertension ([Johnson et al., 2012a]). Exposing rats to higher concentrations of hypercarbic gas (e.g., 20% CO2) depolarizes OX neurons by interacting with pH/ CO2 chemosensitive K^+ channels ([Williams et al., 2007]), and also causes subsequent release of orexin at post-synaptic targets in the brain and spinal cord to mobilize anxiety-like behavior, hypertension, and increases ventilatory responses ([Johnson et al., 2012c], [2015]). JNJ-54717793 was tested in a rat model of CO2-induced panic.

[3] = test system: panel of 50 receptors, ion channels and transporters; test: Selectivity binding panel of 50 receptors, ion channels and transporters (Eurofins); conditions: at 10 μM; any receptor/transporter/ion channel other than the OX1R
Description: These assays were performed by Eurofins (Celles L’Evescault, France).

[4] = rats, after sodium lactate challenge
[5] = rats, highest dose (30 mg/kg p.o.)

Compound: O=C(c1cccc(F)c1-c1ncccn1)N1[C@@H]2CC[C@H]1[C@H](Nc1cnc(C(F)(F)F)cn1)C2 [JNJ-54717793, (1S,2R,4R)-7-([(3-fluoro-2-pyrimidin-2-ylphenyl)carbonyl]-N-[5-(trifluoromethyl)pyrazin-2-yl]-7-azabicyclo[2.2.1]heptan-2-amine)]
- Kb (rat OX1R): 35.5 nM
- sodium lactate-induced pressor response (MAP) (Sprague-Dawley rats [1]; rats, 10 mg/kg p.o., t3 timepoint, no overall treatment effect): attenuation of pressor response
- sodium lactate-induced tachycardia (HR) (Sprague-Dawley rats [1]; rats, 3, 10, 30 mg/kg p.o., compared to vehicle): did not attenuate
- locomotion (Sprague-Dawley rats [1]; rats, 3, 10, 30 mg/kg p.o., sodium lactate did not increase locomotion): did not significantly alter
- center or middle times in the open field test (Sprague-Dawley rats [1]; [4]): Nor was there an effect
- sedative effects (line crossings) in the open field test (Sprague-Dawley rats [1]; [4]): no apparent sedative effects
- sodium lactate-induced anxiety behavior in the SI test (Sprague-Dawley rats [1]; [5]): attenuate/block
- CO2-induced pressor responses (MAP) (Sprague-Dawley rats [2]; rats, 3 mg/kg p.o.): at one time point
- CO2-induced pressor responses (MAP) (Sprague-Dawley rats [2]; rats, 30 mg/kg p.o.): attenuated CO2-induced pressor responses at multiple time points
- increases in locomotor activity post CO2 (Sprague-Dawley rats [2]; rats, 3, 10, 30 mg/kg p.o.): no effect
- CO2-induced bradycardia responses (HR) (Sprague-Dawley rats [2]; rats, 10 and 30 mg/kg p.o.): attenuated CO2-induced bradycardia responses at multiple time points
- center or middle times in the open field test (Sprague-Dawley rats [2]; rats, after CO2 challenge): Nor was there an effect
- sedative effects (line crossings) in the open field test (Sprague-Dawley rats [2]; rats, after CO2 challenge): no apparent sedative effects
- CO2-induced anxiety behavior in the SI test (Sprague-Dawley rats [2]; [5]): attenuated/blocked
- inhibition in selectivity panel [3]: < 50%
